Source: US9212196B2, “Hypophosphorous acid derivatives having antihyperalgic activity and biological applications thereof” (UNIVERSITE PARIS DESCARTES, priority 2011, dated 2015)
Entries after “also recorded” stand apart in the source; their conditions may differ.

Key:
[1] = test system: model of inflammation induced by carrageenan in C57BL6 mice; experiment: Von Frey test in carrageenan inflammation model in mice; format: in vivo, mouse
Method: FIG. 2 illustrates the effect of intrathecal administration of derivative 2 on the vocalization threshold to paw pressure in the carrageenan inflammatory pain model (effect of derivative 2 (0.5, 1, 5, 10 μg/rat, i.t.) on time-course of vocalization threshold to paw pressure). Morphine (10 μg/rat, i.t.) is used as a positive control.
Adult male Sprague-Dawley rats weighting 175-200 g were purchased from Charles River. C57/BL6 mice were from Elevage Janvier, and homozygous mGlu4 (−/−) and wild-type (+/+) littermates were generated from crosses between heterozygous animals. Animals were housed under controlled environmental conditions (22° C.; 55% humidity) and kept under a 12/12 h light/dark cycle, with food and water ad libitum for a week prior to start the experiments in order to acclimatize. Animal care and experiments were carried out in accordance with the Committee for Research and Ethical Issues of the IASP (Zimmermann M., 1983; Goudet C., 2008).
Mechanical allodynia and hyperalgesia were assessed using the von Frey hair filaments of 3 different bending forces (0.07 g, 0.6 g, 1.4 g). For each filament, 5 stimuli were applied with an interval of 3-5 s.

[2] = test system: mGlu7; experiment: Agonist activity on mGlu7 in transfected HEK293 cells, intracellular calcium release (Fluo4-AM); format: cell-based; settings: ratio of mGlu7 EC50 to mGlu4 EC50
Description: (§1) The EC50's are compared to those of L-AP4 (L-2-amino-4-phosphonobutyric acid) used as a reference.
(§2) Metabotropic glutamate receptors were transiently transfected in HEK293 cells by electroporation as described elsewhere (Brabet I. et al., 1998) and plated in 96-well microplates. The high affinity glutamate transporter EAAC1 was co-transfected with the receptor in order to avoid any influence of glutamate released by the cells in the assay medium. In the experiments carried out by the inventors, Group-III mGluRs were co-transfected with a chimeric G-protein which couples the activation of the receptor to the phospholipase-C (PLC) pathway. Thus receptor activation induces production of inositol phosphate (IP) which in turn induces intracellular Ca^2+ release. Receptor activity was then determined by measurement of the IP production or Ca release as already described (Goudet C. et al., PNAS 2004). For intracellular calcium measurements, cells expressing mGluRs were loaded with Ca2+-sensitive fluorescent dye Fluo-4 AM (Invitrogen, Cergy-Pontoise, France) dissolved in Hanks' balanced salt solution (HBSS, Invitrogen, Cergy-Pontoise, France) containing 2.5 mM Probenicid (Sigma-Aldrich Chemie, Saint-Quentin Fallavier, France) for 1 h at 37° C., then washed and incubated with HBSS containing probenecid. A drug plate was prepared with the various concentrations of agonist to be tested and drug solution was added in each well after 20 s of recording. Fluorescence signals (excitation 485 nm, emission 525 nm) were measured by using the fluorescence microplate reader Flexstation III (Molecular Devices, Saint-Grégoire, France) at sampling intervals of 1.5 s for 60 s. All points are realized in triplicate.
(§3) The dose-response curves were fitted using the GraphPad Prism program and the following equation: y=[(ymax−ymin)/(1+(x/EC50)n)]+ymin where EC50 is the concentration of the compound necessary to obtain the half maximal effect and n is the Hill coefficient.

[3] = molecular target: mGlu7 (Homo sapiens (Human), UniProt Q14831); experiment: as above; format: cell-based; settings: transfected cells, calcium release; read-out: mGlu7 EC50 μM (n)
mGlu7 (Homo sapiens (Human), UniProt Q14831), sequence (Q14831 35-915): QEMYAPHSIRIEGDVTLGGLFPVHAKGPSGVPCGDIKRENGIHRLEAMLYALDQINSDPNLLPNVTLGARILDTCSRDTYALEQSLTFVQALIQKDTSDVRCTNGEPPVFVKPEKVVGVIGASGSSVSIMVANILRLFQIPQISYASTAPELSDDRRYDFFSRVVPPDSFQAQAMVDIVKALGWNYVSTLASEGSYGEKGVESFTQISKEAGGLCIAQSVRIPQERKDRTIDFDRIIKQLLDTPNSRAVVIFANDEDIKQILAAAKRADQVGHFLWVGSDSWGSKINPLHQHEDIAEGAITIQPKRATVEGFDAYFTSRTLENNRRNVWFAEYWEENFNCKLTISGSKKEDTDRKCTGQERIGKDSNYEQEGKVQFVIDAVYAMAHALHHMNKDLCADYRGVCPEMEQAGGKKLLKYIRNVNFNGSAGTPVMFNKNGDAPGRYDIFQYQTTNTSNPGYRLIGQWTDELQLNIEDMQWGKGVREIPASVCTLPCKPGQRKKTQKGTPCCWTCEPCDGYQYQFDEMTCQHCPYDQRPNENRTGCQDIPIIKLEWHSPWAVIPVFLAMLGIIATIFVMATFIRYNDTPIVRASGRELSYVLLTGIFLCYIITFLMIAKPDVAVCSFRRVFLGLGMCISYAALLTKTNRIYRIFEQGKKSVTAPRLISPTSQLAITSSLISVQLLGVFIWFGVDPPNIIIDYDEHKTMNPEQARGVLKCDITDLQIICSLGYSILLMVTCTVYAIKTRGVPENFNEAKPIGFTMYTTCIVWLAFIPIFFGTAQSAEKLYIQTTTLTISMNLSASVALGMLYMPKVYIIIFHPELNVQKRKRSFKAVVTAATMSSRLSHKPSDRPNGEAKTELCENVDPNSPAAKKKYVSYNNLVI
Description: as §1, §2, §3

In the case of `N[C@@H](CCP(=O)(O)C(O)c1ccc(OCC(=O)O)cc1)C(=O)O` (stereo partly drawn) [Derivative 2, [((3S)-3-Amino-3-carboxy)propyl][(4-(carboxymethoxy)phenyl)hydroxymethyl]phosphinic Acid], the “antihyperalgesic effect in mice lacking mGluR4 receptor versus wild-type littermates” value ([1]; 10 μg/mice i.t.) is reported as “significantly decreased in mice lacking mGluR4 receptor; also recorded: profoundly impaired”, the “mechanical hypersensitivity measured using Von Frey filaments” value ([1]; C57BL6 mice, i.t.) is reported as “dose-dependently reduced the mechanical hypersensitivity” and the “mGlu7/4 EC50 ratio” value [2] is reported as 100. For the same compound, the EC50 [3] was 11.6 ± 1.9 µM.
